Test results published in patent US20050222078A1, “Use of pyrimidine nucleotides for the treatment of affections of the peripheral nervous system” (priority 2002, published 2005).

Tests used:
[1] = tested on: patients with lumbago; assay: Clinical study of UMP versus placebo in patients with lumbago; assay type: in vivo
Experimental: In the following the effectivity of pyrimidine nucleotides for the treatment of affections of the peripheral nervous system as well as for the stimulation of the regeneration of nerves is described by example of uridine-5′-monophosphate (UMP) by example of the indication lumbago. 80 female as well as male patients, aged between 20 and 63 years, were separated randomly into two groups, one was treated with UMP and the other with placebo. The treatment ranged over four consecutive days, whereas the treatment could be terminated ahead of schedule as soon as the symptoms were ameliorating in a way, that a further treatment was needless. Applied was once per day into a vein of the arm an injection solution of 19.349 mg UMP (this corresponds to a mass of 12.834 mg uridine) in 250 ml of physiological sodium chloride solution over a time period of 30 minutes. The comparison group received as placebo only the 250 ml of physiological sodium chloride solution without an active agent. For this clinical study only patients were chosen with a pain intensity of at least 40 mm on the VAS scale (VAS: visual analogue scale). The pain intensity is given on the linear VAS scale in the unit “mm” and was determined by prompting the patients to mark on the linear VAS scale the point, which corresponded to their respective pain intensity. Thereby a non sensible pain was given with the value 0 mm and the possibly maximum pain with the value 100 mm. The pain intensity of the patients was continuously checked, whereas the patients also had to indicate the respective duration of the single pain periods. Table 1 proves, that already after a short time period after the initial injection the pain intensity strongly decreases in the resting and moving state in the case of the UMP patient group. The finger-floor distance represents a measure for the mobility, i.e. for the grade of capability to bend the back, and is given in the unit “cm”, whereas the distance between the finger tip in the case of outstretched arms and the curvature in the case of maximal possible bending of the back was measured.

[2] = tested on: traumatically affected peripheral nerves; conditions: Wistar rats, B. Wattig et al. 1991; cited from earlier work
[3] = decrease in the UMP patient group
[4] = decrease of pain in the UMP patient group, VAS
[5] = difference of decrease, UMP versus placebo group

SMILES | Presence of myogelosis ([1]; UMP patient group, 24 h after inj., base line 100%) | Pain during resting state ([1]; VAS scale, average of UMP patient group, 24 h after inj., 19.349 mg UMP i.v. once per day, base line 60.3) | Pain during movement ([1]; VAS scale, average of UMP patient group, 24 h after inj., base line 76.1) | Daily duration of pain ([1]; average of UMP patient group, 24 h after inj., base line 15.8) | Finger-floor distance ([1]; average of UMP patient group, 24 h after inj., base line 43.8) | Δ UMP, Daily duration of pain [1, 3] | Δ UMP, Finger-floor distance [1, 3] | Δ UMP, Pain during movement [1, 4] | Δ UMP, Pain during resting state [1, 4] | Δ UMP − Δ Placebo, Daily duration of pain [1, 5] | Δ UMP − Δ Placebo, Finger-floor distance [1, 5] | Δ UMP − Δ Placebo, Pain during movement [1, 5] | Δ UMP − Δ Placebo, Pain during resting state [1, 5] | Absolute values of test parameters (pain, daily duration of pain, finger-floor distance) versus placebo group ([1]; during the further three days) | Decrease in pain compared to placebo patients ([1]; within the initial 24 h after the first injection) | Filament area of nerve filaments (myelin and axon areas) [2]
O=c1ccn([C@@H]2O[C@H](COP(=O)(O)O)[C@@H](O)[C@H]2O)c(=O)[nH]1 [UMP, uridine-5′-monophosphate] | 90% | 46.2 mm | 56.9 mm | 10.7 h | 32.5 cm | -4.3 h | −10.1 cm | −17.9 mm | −12.8 mm | -1.4 h | −2.7 cm | −6.8 mm | −3.4 mm | always below the corresponding absolute values for the placebo group | clear decrease in pain | no comparable results
Nc1ccn([C@@H]2O[C@H](COP(=O)(O)O)[C@@H](O)[C@H]2O)c(=O)n1 [CMP, cytidine-5′-monophosphate] | – | – | – | – | – | – | – | – | – | – | – | – | – | – | – | no comparable results
